Laboratory results: US12612424B2, “HPK1 inhibitors and uses thereof” (Regor Pharmaceuticals, Inc., priority 2019, dated 2026)

System: Human Pan T Cell (IL-2 release)
Test: IL2 released by human pan T cell upon anti-CD3/anti-CD28 stimulation (ELISA)
Type: cell-based
Conditions: human pan T cells; for EC (2-fold response) / maximal fold induction / EC50: Homo sapiens, T-cell; for EC (2-fold response) / maximal fold induction: 48 h; for EC (2-fold response) / EC2x (nM): concentration of compound that gives 200% IL-2 response (2 folds) over DMSO control; for maximal fold induction: response of IL-2 over DMSO control, anti-CD3/anti-CD28, 48 hours, ELISA, read-out: IL-2 Max Fold Response; for EC50: IL-2 response, calculated with GraphPad Prism
Method in brief: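 Primary human pan-T cells, negatively isolated from PBMC, plated at 100,000 cells/well and stimulated with immobilized anti-CD3 plus soluble anti-CD28 in presence of test compound at varying concentrations. After 2 days, secreted IL-2 in supernatant quantified by ELISA.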

Row | SMILES | EC (2-fold response) [µM] | maximal fold induction | EC50 [nM] | EC2x (nM)
1 | COc1cc2c(cc1Nc1ncc(Cl)c(N3CC(CC(=O)O)c4ccccc43)n1)CN(C)CC2 (stereo not drawn) [Example 128] | 0.1 to 0.5 | > 2 | 100 to 500 | –
2 | COc1cc2c(cc1Nc1ncc(Cl)c(-n3cc(CC(=O)O)c4ccccc43)n1)CN(C)CC2 [Example 129] | 0.1 to 0.5 | > 2 | 100 to 500 | –
3 | COc1cc2c(cc1Nc1ncc(Cl)c(-n3cc(CC(=O)OC(C)C)c4ccccc43)n1)CN(C)CC2 [Example 130, Isopropyl 2-(1-(5-chloro-2-((6-methoxy-2-methyl-1,2,3,4-tetrahydroisoquinolin-7-yl)amino)pyrimidin-4-yl)-1H-indol-3-yl)acetate] | – | < 2 | – | –
4 | COc1cc2c(cc1Nc1ncc(Cl)c(-n3cc(CC(N)=O)c4ccccc43)n1)CN(C)CC2 [Example 133] | – | < 2 | > 1000 | –
5 | COc1cc2c(cc1Nc1ncc(Cl)c(-n3cc(CC#N)c4ccccc43)n1)CN(C)CC2 [Example 134] | – | < 2 | > 1000 | –
6 | COc1cc2c(cc1Nc1ncc(Cl)c(-n3cc(Cc4nn[nH]n4)c4ccccc43)n1)CN(C)CC2 [Example 135, N-(4-(3-((2H-tetrazol-5-yl)methyl)-1H-indol-1-yl)-5-chloropyrimidin-2-yl)-6-methoxy-2-methyl-1,2,3,4-tetrahydroisoquinolin-7-amine] | – | < 2 | > 1000 | –
7 | CNC(=O)Cc1cn(-c2nc(Nc3cc4c(cc3OC)CCN(C)C4)ncc2Cl)c2ccccc12 [Example 136] | – | < 2 | 500 to 1000 | –
8 | COc1cc2c(cc1Nc1ncc(Cl)c(-n3cc(CC(=O)NCC#N)c4ccccc43)n1)CN(C)CC2 [Example 137] | – | < 2 | 500 to 1000 | –
9 | COc1cc2c(cc1Nc1ncc(Cl)c(-n3cc(CC(=O)O)c4cc(F)ccc43)n1)CN(C)CC2 [Example 138] | 0.1 to 0.5 | > 2 | 100 to 500 | –
10 | COc1cc2c(cc1Nc1ncc(Cl)c(-n3cc(CC(=O)O)c4ccc(F)cc43)n1)CN(C)CC2 [Example 139] | ≤ 0.1 | > 2 | ≤ 100 | –
11 | COc1cc2c(cc1Nc1ncc(Cl)c(-n3cc(CC(=O)O)c4cc(F)c(F)cc43)n1)CN(C)CC2 [Example 140] | 0.1 to 0.5 | > 2 | 100 to 500 | –
12 | COc1cc2c(cc1Nc1ncc(Cl)c(-n3nc(CC(=O)O)c4ccccc43)n1)CN(C)CC2 [Example 141] | – | > 2 | > 1000 | ++ (“++”, for higher values than “+++” but less than or equal to 1 μM)
13 | COc1cc2c(cc1Nc1ncc(Cl)c(-n3cc(C(C)C(=O)O)c4ccccc43)n1)CN(C)CC2 (stereo not drawn) [Example 142] | – | < 2 | 100 to 500 | –
14 | COC(=O)CC1(C)CN(c2nc(Nc3cc4c(cc3OC)CCN(C)C4)ncc2Cl)c2ccccc21 (stereo not drawn) [Example 145] | – | < 2 | – | –
15 | COc1cc2c(cc1Nc1ncc(Cl)c(N3CC(C)(CC(=O)O)c4ccccc43)n1)CN(C)CC2 (stereo not drawn) [Example 146] | ≤ 0.1 | > 2 | ≤ 100 | –
16 | CCOC(=O)CC1(C)CN(c2nc(Nc3cc4c(cc3OC)CCN(C)C4)ncc2Cl)c2ccccc21 (stereo not drawn) [Example 149] | – | < 2 | – | –
17 | COc1cc2c(cc1Nc1ncc(Cl)c(N3CC(C)(CC(=O)O)c4cc(F)ccc43)n1)CN(C)CC2 (stereo not drawn) [Example 150, 2-(1-(5-Chloro-2-((6-methoxy-2-methyl-1,2,3,4-tetrahydroisoquinolin-7-yl)amino)pyrimidin-4-yl)-5-fluoro-3-methylindolin-3-yl)acetic acid] | ≤ 0.1 | > 2 | ≤ 100 | –
18 | COc1cc2c(cc1Nc1ncc(Cl)c(N3CC(C)(CC(=O)O)c4ccc(F)cc43)n1)CN(C)CC2 (stereo not drawn) [Example 151] | ≤ 0.1 | > 2 | ≤ 100 | –
19 | COc1cc2c(cc1Nc1ncc(Cl)c(N3CC(C)(CC(=O)O)c4cc(F)c(F)cc43)n1)CN(C)CC2 (stereo not drawn) [Example 154] | ≤ 0.1 | > 2 | ≤ 100 | –
20 | CN1CCc2cc(F)c(Nc3ncc(Cl)c(N4CC(C)(CC(=O)O)c5ccccc54)n3)cc2C1 (stereo not drawn) [Example 156] | ≤ 0.1 | > 2 | ≤ 100 | –
21 | CCN1CCc2cc(OC)c(Nc3ncc(Cl)c(N4CC(C)(CC(=O)O)c5ccccc54)n3)cc2C1 (stereo not drawn) [Example 157, 2-(1-(5-Chloro-2-((2-ethyl-6-methoxy-1,2,3,4-tetrahydroisoquinolin-7-yl)amino)pyrimidin-4-yl)-3-methylindolin-3-yl)acetic acid] | ≤ 0.1 | > 2 | ≤ 100 | –
22 | COc1cc2c(cc1Nc1ncc(Cl)c(N3CC(C)(CC(=O)O)c4ccccc43)n1)CN(C(C)C)CC2 (stereo not drawn) [Example 158, 2-(1-(5-Chloro-2-((2-isopropyl-6-methoxy-1,2,3,4-tetrahydroisoquinolin-7-yl)amino)pyrimidin-4-yl)-3-methylindolin-3-yl)acetic acid] | ≤ 0.1 | > 2 | ≤ 100 | –
23 | COc1cc2c(cc1Nc1ncc(Cl)c(N3CC(C)(CC(=O)O)c4ccccc43)n1)CN(C)C2 (stereo not drawn) [Example 159, 2-(1-(5-Chloro-2-((6-methoxy-2-methylisoindolin-5-yl)amino)pyrimidin-4-yl)-3-methylindolin-3-yl)acetic acid] | ≤ 0.1 | > 2 | ≤ 100 | –
24 | COc1cc2c(cc1Nc1ncc(Cl)c(N3CC(C)(CC(=O)O)c4ccccc43)n1)CNCC2 (stereo not drawn) [Example 160, 2-(1-(5-Chloro-2-((6-methoxy-1,2,3,4-tetrahydroisoquinolin-7-yl)amino)pyrimidin-4-yl)-3-methylindolin-3-yl)acetic acid methanesulfonic acid] | ≤ 0.1 | > 2 | ≤ 100 | –
25 | COc1cc2c(cc1Nc1ncc(Cl)c(-c3cn(CC(=O)O)c4ccccc34)n1)CN(C)CC2 [Example 161] | – | > 2 | > 1000 | + (“+”, for greater than 1 μM)
26 | COc1cc2c(cc1Nc1ncc(Cl)c(-c3nn(CC(=O)O)c4ccccc34)n1)CN(C)CC2 [Example 162, 2-(3-(5-Chloro-2-((6-methoxy-2-methyl-1,2,3,4-tetrahydroisoquinolin-7-yl)amino)pyrimidin-4-yl)-1H-indazol-1-yl)acetic acid] | – | < 2 | – | –
27 | COc1cc2c(cc1Nc1nccc(N3CC(C(=O)O)c4ccccc43)n1)CN(C)CC2 (stereo not drawn) [Example 163, 1-(2-((6-Methoxy-2-methyl-1,2,3,4-tetrahydroisoquinolin-7-yl)amino)pyrimidin-4-yl)indoline-3-carboxylic acid] | – | > 2 | > 1000 | + (“+”, for greater than 1 μM)
28 | COc1cc2c(cc1Nc1ncc3cc(C#N)n(-c4ccccc4)c3n1)CN(C)CC2 [Example 164, 2-((6-Methoxy-2-methyl-1,2,3,4-tetrahydroisoquinolin-7-yl)amino)-7-phenyl-7H-pyrrolo[2,3-d]pyrimidine-6-carbonitrile] | – | < 2 | ≤ 100 | –
